In patent US20240350579A1 (priority 2020, published 2024):

Key:
[1] = Net peptide charge and isoelectric point; type: physicochemical; settings: pH 7
Text: The peptide may be purified. For example, the peptide may be lyophilized. […] Other peptides are within the scope of the disclosure.
Exemplary peptides having a charge of +5 to +9 include […](d)[…], […](d)[…], and […](d)[…]. In other embodiments, the purified peptide may be substantially neutral. […] Net charge may be selected by peptide design. Design of electrostatic charge in the peptide hydrogel may allow control of charge interaction with cell membrane and proteins.

P. aeruginosa = assay: Antibacterial assay of PEPXR hydrogels; type: cell-based
Text: (§1) Thus, the peptide hydrogels described herein may generally comprise a high content of positively charged arginine (R) amino acids.
The peptide hydrogel is believed to directly lyse bacterial membranes indiscriminately. […] The mechanism additionally makes it more difficult for the treated microorganisms to gain antibiotic resistance.

E. coli = assay: Antibacterial assay of PEPXR hydrogels; type: cell-based
Text: as §1

S. aureus = assay: Antibacterial assay of PEPXR hydrogels; type: cell-based
Text: as §1

| Substance | net charge [1] | antimicrobial activity (in words) (P. aeruginosa) | antimicrobial activity (in words) (E. coli) | antimicrobial activity (in words) (S. aureus) |
| --- | --- | --- | --- | --- |
| VEVSVSVEV(d)PPTEVSVEVEV | net negative charge |  |  |  |
| VKVRVRVRVPPTRVRVRVKV [PEP6R] |  | potent antimicrobial activity | potent antimicrobial activity | potent antimicrobial activity |
